{"source": "patent US11046658B2", "about": "“Aminopyrazine derivatives as PI3K-γ inhibitors” (Incyte Corporation, priority 2018, dated 2021)", "key": {"[1]": {"test_system": "Phosphorylated Ribosomal Protein S6 (RPS6) in THP-1 cells", "assay": "THP-1 RPS6 ELISA Assay", "format": "cell-based, Human", "conditions": "Homo sapiens", "outline": "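Cells serum-starved overnight, pre-incubated with compounds 2 h at 37° C, then stimulated with 10 nM MCP-1 for 15 min. Lysates assayed for phospho-RPS6 by ELISA read at 450 nm. IC50 from percent inhibition vs log concentration curve fit.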"}, "[2]": {"biological_target": "PI3Kδ (p110δ/p85α) Recombinant Human Protein (Homo sapiens (Human), UniProt O00329)", "sequence (O00329 whole entry)": "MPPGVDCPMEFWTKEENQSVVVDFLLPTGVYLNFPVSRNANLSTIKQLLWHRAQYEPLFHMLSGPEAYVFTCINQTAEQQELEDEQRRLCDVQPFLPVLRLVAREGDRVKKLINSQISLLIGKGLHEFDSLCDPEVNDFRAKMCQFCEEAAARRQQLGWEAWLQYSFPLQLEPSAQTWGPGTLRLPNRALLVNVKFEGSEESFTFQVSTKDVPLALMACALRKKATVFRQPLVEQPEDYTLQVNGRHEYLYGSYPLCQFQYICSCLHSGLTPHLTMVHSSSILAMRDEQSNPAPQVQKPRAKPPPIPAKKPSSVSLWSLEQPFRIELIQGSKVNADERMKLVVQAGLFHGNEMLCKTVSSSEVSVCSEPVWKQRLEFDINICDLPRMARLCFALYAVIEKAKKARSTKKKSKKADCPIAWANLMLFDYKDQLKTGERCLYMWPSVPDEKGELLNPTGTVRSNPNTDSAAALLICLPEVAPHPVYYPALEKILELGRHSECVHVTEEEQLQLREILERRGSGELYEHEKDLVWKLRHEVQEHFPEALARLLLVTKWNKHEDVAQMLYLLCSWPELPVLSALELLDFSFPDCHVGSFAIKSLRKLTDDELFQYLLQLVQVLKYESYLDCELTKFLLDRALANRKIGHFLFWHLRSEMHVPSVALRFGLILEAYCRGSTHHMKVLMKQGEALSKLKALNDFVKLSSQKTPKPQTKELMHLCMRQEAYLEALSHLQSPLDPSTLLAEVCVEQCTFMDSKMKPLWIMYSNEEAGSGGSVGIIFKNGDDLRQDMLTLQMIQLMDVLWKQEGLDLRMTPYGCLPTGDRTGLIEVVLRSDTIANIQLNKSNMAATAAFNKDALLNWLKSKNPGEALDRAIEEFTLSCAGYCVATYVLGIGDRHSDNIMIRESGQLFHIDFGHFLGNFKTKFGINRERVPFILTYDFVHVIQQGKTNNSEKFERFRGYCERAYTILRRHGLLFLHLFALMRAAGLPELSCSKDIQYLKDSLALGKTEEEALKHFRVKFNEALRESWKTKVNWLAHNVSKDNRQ", "sequence (P27986 whole entry partner)": "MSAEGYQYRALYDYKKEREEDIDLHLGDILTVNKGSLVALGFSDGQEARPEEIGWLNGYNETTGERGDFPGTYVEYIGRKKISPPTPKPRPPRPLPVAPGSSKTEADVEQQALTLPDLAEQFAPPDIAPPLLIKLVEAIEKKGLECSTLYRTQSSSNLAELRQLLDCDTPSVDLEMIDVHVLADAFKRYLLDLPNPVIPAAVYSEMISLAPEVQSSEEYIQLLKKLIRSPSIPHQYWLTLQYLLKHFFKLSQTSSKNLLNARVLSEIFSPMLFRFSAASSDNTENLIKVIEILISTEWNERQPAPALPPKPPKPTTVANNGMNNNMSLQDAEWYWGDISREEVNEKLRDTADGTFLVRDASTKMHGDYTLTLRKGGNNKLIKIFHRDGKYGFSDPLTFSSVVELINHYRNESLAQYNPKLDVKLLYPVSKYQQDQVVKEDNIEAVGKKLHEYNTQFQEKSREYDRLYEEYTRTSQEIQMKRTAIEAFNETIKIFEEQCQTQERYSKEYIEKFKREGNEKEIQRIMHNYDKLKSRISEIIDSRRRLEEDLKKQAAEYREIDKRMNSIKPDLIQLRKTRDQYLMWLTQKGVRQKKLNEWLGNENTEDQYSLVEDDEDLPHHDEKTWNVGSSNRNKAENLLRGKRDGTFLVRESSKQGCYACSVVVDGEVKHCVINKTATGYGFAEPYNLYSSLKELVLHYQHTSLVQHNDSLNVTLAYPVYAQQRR", "assay": "PI3Kδ Scintillation Proximity Assay", "format": "biochemical", "conditions": "2 μM ATP, 20 μM PIP2", "excerpt": "Materials: [γ-^33P]ATP (10 mCi/mL) and Wheat Germ Agglutinin (WGA) YSi SPA Scintillation Beads was purchased from Perkin Elmer (Waltham, Mass.). Lipid kinase substrate, D-myo-Phosphatidylinositol 4,5-bisphosphate (PtdIns(4,5)P2)D (+)-sn-1,2-di-O-octanoylglyceryl, 3-O-phospho linked (PIP2), CAS 204858-53-7, was purchased from Echelon Biosciences (Salt Lake City, Utah). PI3Kδ (p110δ/p85α) Recombinant Human Protein was purchased from Eurofins (St Charles, Mo.). ATP, MgCl2, DTT, EDTA, MOPS and CHAPS were purchased from Sigma Aldrich (St. Louis, Mo.).\nThe kinase reaction was conducted in polystyrene 384-well Greiner Bio-one white plate from Thermo Fisher Scientific in a final volume of 25 μL. Inhibitors were first diluted serially in DMSO and added to the plate wells before the addition of other reaction components. The final concentration of DMSO in the assay was 2%. The PI3Kδ assay was carried out at room temperature in 20 mM MOPS, pH 6.7, 10 mM MgCl2, 5 mM DTT and CHAPS 0.03%. Reactions were initiated by the addition of ATP, the final reaction mixture consisted of 20 μM PIP2, 2 μM ATP, 0.5 μCi [γ-^33P] ATP, 3.4 nM PI3Kδ. Reactions were incubated for 120 min and terminated by the addition of 40 μL SPA beads suspended in quench buffer: 163 mM potassium phosphate pH 7.8, 20% glycerol, 25 mM EDTA. The final concentration of SPA beads is 1.0 mg/mL. After the plate sealing, plates were shaken overnight at room temperature and centrifuged at 1500 rpm for 10 min, the radioactivity of the product was determined by scintillation counting on Topcount (PerkinElmer). IC50 determination was performed by fitting the curve of percent of the solvent control activity versus the log of the inhibitor concentration using the GraphPad Prism 6.0 software."}, "[3]": {"conditions": "Table A3, THP-1 cells, 10 nM MCP-1, read-out: PI3Kγ_THP1_RPS6_ELISA IC50"}, "[4]": {"conditions": "Table A4, THP-1 cells, 10 nM MCP-1, cells given with + symbol, read-out: PI3Kγ_THP1_RPS6_ELISA IC50"}, "[5]": {"conditions": "Table A4, THP-1 cells, 10 nM MCP-1, read-out: PI3Kγ_THP1_RPS6_ELISA IC50"}, "[6]": {"conditions": "Table A1, THP-1 cells, 10 nM MCP-1, read-out: PI3Kγ_THP1_RPS6_ELISA IC50"}}, "note": "Structures can show the parent of a compound that is named as a salt. Where two headings read alike, the source gives them in different places."}
{"smiles": "CNC(=O)C(O)(c1ccc(C)c(-c2cnc(N)c(-c3cnn(C)c3)n2)c1)C(F)(F)F", "note": "(stereo not shown) [Example 96, 2-(3-(5-Amino-6-(1-methyl-1H-pyrazol-4-yl)pyrazin-2-yl)-4-methylphenyl)-3,3,3-trifluoro-2-hydroxy-N-methylpropanamide]", "values": [{"measurement": "IC50", "setting": "[1]; [3]", "result": "< 100", "unit": "nM"}, {"measurement": "IC50", "setting": "[2]; Table A3", "result": "< 0.5", "unit": "µM"}]}
{"smiles": "Cc1ccc(C(O)(C(N)=O)C(F)(F)F)cc1-c1cnc(N)c(N2CCN(c3ccccc3)CC2)n1", "note": "(stereo not shown) [Example 116, 2-(3-(5-amino-6-(4-phenylpiperazin-1-yl)pyrazin-2-yl)-4-methylphenyl)-3,3,3-trifluoro-2-hydroxypropanamide trifluoroacetate]", "values": [{"measurement": "IC50", "setting": "[1]; [4]", "result": "< 100", "unit": "nM"}, {"measurement": "IC50", "setting": "[2]; Table A4", "result": "< 0.5", "unit": "µM"}]}
{"smiles": "Cc1ccc(C(O)(C(N)=O)C(F)(F)F)cc1-c1cnc(N)c(-c2cncnc2)n1", "note": "(stereo not shown) [Example 81, 2-(3-(5-amino-6-(pyrimidin-5-yl)pyrazin-2-yl)-4-methylphenyl)-3,3,3-trifluoro-2-hydroxypropanamide trifluoroacetate]", "values": [{"measurement": "IC50", "setting": "[1]; [3]", "result": "< 500", "unit": "nM"}, {"measurement": "IC50", "setting": "[2]; Table A3", "result": "< 0.5", "unit": "µM"}]}
{"smiles": "Cc1ccc(C)c(N2CCN(c3nc(-c4cc(C(O)(C(N)=O)C(F)(F)F)ccc4C)cnc3N)CC2)c1", "note": "(stereo not shown) [Example 119, 2-(3-(5-amino-6-(4-(2,5-dimethylphenyl)piperazin-1-yl)pyrazin-2-yl)-4-methylphenyl)-3,3,3-trifluoro-2-hydroxypropanamide trifluoroacetate]", "values": [{"measurement": "IC50", "setting": "[1]; [5]", "result": "> 1000", "unit": "nM"}, {"measurement": "IC50", "setting": "[2]; Table A4", "result": "< 0.5", "unit": "µM"}]}
{"smiles": "CCCc1nc(-c2cc(C(O)(C(N)=O)C(F)(F)F)ccc2C)cnc1N", "note": "(stereo not shown) [Example 45, 2-(3-(5-amino-6-propylpyrazin-2-yl)-4-methylphenyl)-3,3,3-trifluoro-2-hydroxypropanamide]", "values": [{"measurement": "IC50", "setting": "[1]; Table A2, THP-1 cells, 10 nM MCP-1, read-out: PI3Kγ_THP1_RPS6_ELISA IC50", "result": "< 500", "unit": "nM"}, {"measurement": "IC50", "setting": "[2]; Table A2", "result": "< 0.5", "unit": "µM"}]}
{"smiles": "Cc1ccc(C(O)(C(N)=O)C(F)(F)F)cc1-c1cnc(N)c(N2CCN(C(C)(C)C)C(=O)C2)n1", "note": "(stereo not shown) [Example 113, 2-(3-(5-amino-6-(4-tert-butyl-3-oxopiperazin-1-yl)pyrazin-2-yl)-4-methylphenyl)-3,3,3-trifluoro-2-hydroxypropanamide trifluoroacetate]", "values": [{"measurement": "IC50", "setting": "[1]; [5]", "result": "< 500", "unit": "nM"}, {"measurement": "IC50", "setting": "[2]; Table A4", "result": "< 0.5", "unit": "µM"}]}
{"smiles": "Cc1ccc(C(O)(C(N)=O)C(F)(F)F)cc1-c1cnc(N)c(C(=O)N2CCc3cccnc32)n1", "note": "(stereo not shown) [Example 28, 2-(3-(5-amino-6-(2,3-dihydro-1H-pyrrolo[2,3-b]pyridine-1-carbonyl)pyrazin-2-yl)-4-methylphenyl)-3,3,3-trifluoro-2-hydroxypropanamide]", "values": [{"measurement": "IC50", "setting": "[1]; [6]", "result": "< 100", "unit": "nM"}, {"measurement": "IC50", "setting": "[2]; Table A1", "result": "< 0.5", "unit": "µM"}]}
{"smiles": "CNC(=O)c1ccc(-c2nc(-c3cc(C(O)(C(N)=O)C(F)(F)F)ccc3C)cnc2N)cn1", "note": "(stereo not shown) [Example 80, 5-(3-amino-6-(5-(3-amino-1,1,1-trifluoro-2-hydroxy-3-oxopropan-2-yl)-2-methylphenyl)pyrazin-2-yl)-N-methylpicolinamide bistrifluoroacetate]", "values": [{"measurement": "IC50", "setting": "[1]; [3]", "result": "< 1000", "unit": "nM"}, {"measurement": "IC50", "setting": "[2]; Table A3", "result": "< 0.5", "unit": "µM"}]}
{"smiles": "Cc1ccc(C(O)(C(N)=O)C(F)(F)F)cc1-c1cnc(N)c(C(F)(F)F)n1", "note": "(stereo not shown) [Example 46, 2-(3-(5-Amino-6-(trifluoromethyl)pyrazin-2-yl)-4-methylphenyl)-3,3,3-trifluoro-2-hydroxypropanamide trifluoroacetate]", "values": [{"measurement": "IC50", "setting": "[2]; Table A2", "result": "< 0.5", "unit": "µM"}]}
{"smiles": "Cc1ccc(C(O)(CNC=O)C(F)(F)F)cc1-c1cnc(N)c(-c2cn[nH]c2)n1", "note": "(stereo not shown) [Example 103, N-(2-(3-(5-amino-6-(1H-pyrazol-4-yl)pyrazin-2-yl)-4-methylphenyl)-3,3,3-trifluoro-2-hydroxypropyl)formamide trifluoroacetate]", "values": [{"measurement": "IC50", "setting": "[1]; [3]", "result": "< 500", "unit": "nM"}, {"measurement": "IC50", "setting": "[2]; Table A3", "result": "< 0.5", "unit": "µM"}]}
{"smiles": "Cc1ccc(C(O)(C(N)=O)C(F)(F)F)cc1-c1cnc(N)c(N2CCN(C3CC3)C(=O)C2)n1", "note": "(stereo not shown) [Example 112, 2-(3-(5-amino-6-(4-cyclopropyl-3-oxopiperazin-1-yl)pyrazin-2-yl)-4-methylphenyl)-3,3,3-trifluoro-2-hydroxypropanamide trifluoroacetate]", "values": [{"measurement": "IC50", "setting": "[1]; [5]", "result": "< 500", "unit": "nM"}, {"measurement": "IC50", "setting": "[2]; Table A4", "result": "< 0.5", "unit": "µM"}]}
{"smiles": "Cc1ccc(C(O)(C(N)=O)C(F)(F)F)cc1-c1cnc(N)c(N2CCN(c3cccc(C(F)(F)F)c3)CC2)n1", "note": "(stereo not shown) [Example 121, 2-(3-(5-amino-6-(4-(3-(trifluoromethyl)phenyl)piperazin-1-yl)pyrazin-2-yl)-4-methylphenyl)-3,3,3-trifluoro-2-hydroxypropanamide trifluoroacetate]", "values": [{"measurement": "IC50", "setting": "[1]; [5]", "result": "> 1000", "unit": "nM"}, {"measurement": "IC50", "setting": "[2]; Table A4", "result": "< 0.5", "unit": "µM"}]}
{"smiles": "Cc1ccc(C(O)(C(N)=O)C(F)(F)F)cc1-c1cnc(N)c(N2CCN3C(=O)CCC3C2)n1", "note": "(stereo not shown) [Example 126, 2-(3-(5-amino-6-(6-oxohexahydropyrrolo[1,2-a]pyrazin-2(1H)-yl)pyrazin-2-yl)-4-methylphenyl)-3,3,3-trifluoro-2-hydroxypropanamide trifluoroacetate]", "values": [{"measurement": "IC50", "setting": "[1]; [4]", "result": "< 100", "unit": "nM"}]}
{"smiles": "CC(=O)NCC(O)(c1ccc(C)c(-c2cnc(N)c(C(=O)NC(C)C)n2)c1)C(F)(F)F", "note": "(stereo not shown) [Example 39, 6-(5-(3-Acetamido-1,1,1-trifluoro-2-hydroxypropan-2-yl)-2-methylphenyl)-3-amino-N-isopropylpyrazine-2-carboxamide trifluoroacetate]", "values": [{"measurement": "IC50", "setting": "[1]; [6]", "result": "< 500", "unit": "nM"}]}
{"smiles": "Cc1ccc(C(O)(C(N)=O)C(F)(F)F)cc1-c1cnc(N)c(C(=O)NCC(O)C(F)(F)F)n1", "note": "(single isomer, unassigned) [Example 43A, 3-amino-6-(5-(3-amino-1,1,1-trifluoro-2-hydroxy-3-oxopropan-2-yl)-2-methylphenyl)-N-(3,3,3-trifluoro-2-hydroxypropyl)pyrazine-2-carboxamide]", "values": [{"measurement": "IC50", "setting": "[1]; [6]", "result": "< 100", "unit": "nM"}]}
{"smiles": "Cc1ccc(-c2nc(-c3cc(C(O)(C(N)=O)C(F)(F)F)ccc3C)cnc2N)cn1", "note": "(stereo not shown) [Example 82, 2-(3-(5-amino-6-(6-methylpyridin-3-yl)pyrazin-2-yl)-4-methylphenyl)-3,3,3-trifluoro-2-hydroxypropanamide bistrifluoroacetate]", "values": [{"measurement": "IC50", "setting": "[1]; [3]", "result": "< 500", "unit": "nM"}]}
{"smiles": "C/C=C\\c1nc(-c2cc(C(O)(C(N)=O)C(F)(F)F)ccc2C)cnc1N", "note": "(stereo not shown) [Example 44, (Z)-2-(3-(5-amino-6-(prop-1-en-1-yl)pyrazin-2-yl)-4-methylphenyl)-3,3,3-trifluoro-2-hydroxypropanamide]", "values": [{"measurement": "IC50", "setting": "[2]; Table A2", "result": "< 0.5", "unit": "µM"}]}
{"smiles": "Cc1ccc(C(O)(C(N)=O)C(F)(F)F)cc1-c1cnc(N)c(C(=O)NC(C)(C)CO)n1", "note": "(stereo not shown) [Example 13, 3-Amino-6-(5-(3-amino-1,1,1-trifluoro-2-hydroxy-3-oxopropan-2-yl)-2-methylphenyl)-N-(1-hydroxy-2-methylpropan-2-yl)pyrazine-2-carboxamide]", "values": [{"measurement": "IC50", "setting": "[1]; [6]", "result": "< 100", "unit": "nM"}]}
{"smiles": "Cc1ccc(C(O)(C(N)=O)C(F)(F)F)cc1-c1cnc(N)c(C(=O)NCC2(C#N)CC2)n1", "note": "(stereo not shown) [Example 4, 3-amino-6-(5-(3-amino-1,1,1-trifluoro-2-hydroxy-3-oxopropan-2-yl)-2-methylphenyl)-N-((1-cyanocyclopropyl)methyl)pyrazine-2-carboxamide trifluoroacetate]", "values": [{"measurement": "IC50", "setting": "[1]; [6]", "result": "< 100", "unit": "nM"}]}
{"smiles": "Cc1ccc(C(O)(C(N)=O)C(F)(F)F)cc1-c1cnc(N)c(C(=O)NC2CCOCC2)n1", "note": "(stereo not shown) [Example 2, 3-amino-6-(5-(3-amino-1,1,1-trifluoro-2-hydroxy-3-oxopropan-2-yl)-2-methylphenyl)-N-(tetrahydro-2H-pyran-4-yl)pyrazine-2-carboxamide trifluoroacetate]", "values": [{"measurement": "IC50", "setting": "[1]; [6]", "result": "< 100", "unit": "nM"}]}
{"smiles": "CCNC(=O)c1nc(-c2cc(C(O)(C(N)=O)C(F)F)ccc2C)cnc1N", "note": "(stereo not shown) [Example 32, 3-amino-6-(5-(1-amino-3,3-difluoro-2-hydroxy-1-oxopropan-2-yl)-2-methylphenyl)-N-ethylpyrazine-2-carboxamide]", "values": [{"measurement": "IC50", "setting": "[1]; [6]", "result": "< 100", "unit": "nM"}]}
{"smiles": "Cc1ccc(C(O)(C(N)=O)C(F)(F)F)cc1-c1cnc(N)c(N2CCN(CCC#N)CC2)n1", "note": "(stereo not shown) [Example 125, 2-(3-(5-amino-6-(4-(2-cyanoethyl)piperazin-1-yl)pyrazin-2-yl)-4-methylphenyl)-3,3,3-trifluoro-2-hydroxypropanamide trifluoroacetate]", "values": [{"measurement": "IC50", "setting": "[1]; THP-1, read-out: PI3Kγ_THP1_RPS6_ELISA IC50 (nM)", "result": "< 500", "unit": "nM"}]}
{"smiles": "CC(=O)NCC(O)(c1ccc(C)c(-c2cnc(N)c(-c3cnn(CC(F)(F)F)c3)n2)c1)C(F)(F)F", "note": "(stereo not shown) [Example 104, N-(2-(3-(5-amino-6-(1-(2,2,2-trifluoroethyl)-1H-pyrazol-4-yl)pyrazin-2-yl)-4-methylphenyl)-3,3,3-trifluoro-2-hydroxypropyl)acetamide trifluoroacetate]", "values": [{"measurement": "IC50", "setting": "[1]; [3]", "result": "< 100", "unit": "nM"}]}
